Activity calls are given as the source filed them. The calls are words filed in the database; no cut-off is given here.
Assays:
[1] = molecular target: T1, Nuclear factor NF-kappa-B p105 subunit (Homo sapiens) (UniProt P19838); test: Inhibition of DNA binding activity of human NF-kappaB p50 at 200 uM measured after 1 hr by ELISA
T1 sequence (whole entry): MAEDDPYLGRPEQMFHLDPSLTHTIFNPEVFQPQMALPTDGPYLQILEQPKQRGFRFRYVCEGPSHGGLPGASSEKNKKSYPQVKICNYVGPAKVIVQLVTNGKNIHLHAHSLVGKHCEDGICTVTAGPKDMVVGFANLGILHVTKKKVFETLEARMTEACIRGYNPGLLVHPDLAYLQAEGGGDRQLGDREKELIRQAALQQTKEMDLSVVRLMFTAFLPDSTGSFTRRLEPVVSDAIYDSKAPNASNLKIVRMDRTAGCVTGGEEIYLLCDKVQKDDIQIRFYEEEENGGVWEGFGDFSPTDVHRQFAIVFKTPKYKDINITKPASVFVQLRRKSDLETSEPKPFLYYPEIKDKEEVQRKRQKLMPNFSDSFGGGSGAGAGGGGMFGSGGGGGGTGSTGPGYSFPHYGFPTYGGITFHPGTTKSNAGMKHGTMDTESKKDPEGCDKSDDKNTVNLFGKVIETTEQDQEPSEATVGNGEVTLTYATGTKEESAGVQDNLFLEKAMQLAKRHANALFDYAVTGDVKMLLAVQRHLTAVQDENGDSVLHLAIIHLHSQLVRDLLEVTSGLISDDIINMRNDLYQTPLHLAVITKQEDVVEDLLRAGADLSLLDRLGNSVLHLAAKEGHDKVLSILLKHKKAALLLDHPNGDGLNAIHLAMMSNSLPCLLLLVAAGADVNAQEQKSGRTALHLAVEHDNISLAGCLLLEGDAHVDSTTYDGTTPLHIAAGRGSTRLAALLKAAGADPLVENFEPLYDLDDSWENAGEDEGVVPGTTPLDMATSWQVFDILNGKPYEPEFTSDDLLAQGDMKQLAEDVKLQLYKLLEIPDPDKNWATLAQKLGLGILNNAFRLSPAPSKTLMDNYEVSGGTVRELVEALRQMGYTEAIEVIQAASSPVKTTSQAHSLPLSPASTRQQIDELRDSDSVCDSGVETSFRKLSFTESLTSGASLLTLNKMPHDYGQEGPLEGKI

[2] = Aqueous stability of compound; format: physicochemical; conditions: buffer
RAW264.7 [3] = test: Antiinflammatory activity in mouse RAW264.7 cells assessed as inhibition of LPS-induced IL6 release at 5 to 10 uM preincubated for 1 hr followed by LPS stimulation and measured after 24 hrs by ELISA; format: functional, cell-based; conditions: dose 5-10 µM, time 25.0 hrs
RAW264.7 [4] = test: Cytotoxicity against mouse RAW264.7 cells assessed as reduction cell viability at 20 uM measured after 24 hrs by Celltiter-glo assay; format: cell-based; conditions: raw264.7, 24 h
RAW264.7 [5] = test: Antiinflammatory activity in mouse RAW264.7 cells assessed as inhibition of LPS-induced TNFalpha release at 5 to 10 uM preincubated for 1 hr followed by LPS stimulation and measured after 4 hrs by ELISA; format: functional, cell-based; conditions: dose 5-10 µM, time 5.0 hrs
RAW-Blue [6] = test: Inhibition of LPS-induced NF-kappaB activity in mouse RAW-Blue cells assessed as reduction in SEAP reporter activity at 5 to 20 uM preincubated for 1 hr followed by LPS stimulation and measured after 8 to 24 hrs by SEAP reporter gene assay; format: cell-based; conditions: dose 5-20 µM, time 25.0 hrs
RAW-Blue [7] = test: Activation of NF-kappaB activity in mouse RAW-Blue cells assessed as increase in SEAP reporter activity at 5 to 20 uM measured after 24 hrs by SEAP reporter gene assay; format: cell-based; conditions: filed as activator, dose 5-20 µM
RAW-Blue [8] = test: Activation of NF-kappaB activity in mouse RAW-Blue cells assessed as increase in SEAP reporter activity at 30 uM measured after 24 hrs in presence of p38 inhibitor SB203580 by SEAP reporter gene assay; format: cell-based
[9] = GSH reactivity in PBS assessed as GSH adduct formation measured up to 8 hrs by HPLC-MS analysis; format: ADME; conditions: buffer
[10] = GSH reactivity in PBS assessed as GSH adduct formation by measuring half life by HPLC-MS analysis; format: ADME
[11] = Cytotoxicity against human L02 cells assessed as reduction in cell viability measured after 24 hrs by Celltiter-glo assay; format: cell-based
[12] = Cytotoxicity against HEK293 cells assessed as reduction in cell viability measured after 24 hrs by Celltiter-glo assay; format: cell-based; conditions: human
RAW264.7 [13] = test: Antiinflammatory activity in BSO-treated mouse RAW264.7 cells assessed as inhibition of LPS-induced TNFalpha release at 2.5 to 10 uM preincubated for 1 hr followed by LPS stimulation and measured after 4 hrs by ELISA; format: functional, cell-based; conditions: dose 2.5-10 µM, time 5.0 hrs
RAW264.7 [14] = test: Cytotoxicity against BSO-treated mouse RAW264.7 cells assessed as reduction cell viability measured after 24 hrs by Celltiter-glo assay; format: cell-based; conditions: raw264.7, 24 h, dose 10-20 µM
RAW264.7 [15] = test: Activation of JNK phosphorylation in mouse RAW264.7 cells at 50 uM measured after 4 hrs by Western blot analysis; format: cell-based; conditions: filed as activator
RAW264.7 [16] = test: Activation of JNK phosphorylation in BSO-treated mouse RAW264.7 cells at 50 uM measured after 4 hrs by Western blot analysis; conditions: filed as activator
RAW264.7 [17] = test: Antiinflammatory activity in 2 hrs NAC-pretreated mouse RAW264.7 cells assessed as inhibition of LPS-induced TNFalpha release at 10 uM preincubated for 1 hr followed by LPS stimulation and measured after 4 hrs by ELISA relative to control; format: functional; conditions: time 5 hrs
RAW264.7 [18] = test: Antiinflammatory activity in 4 hrs NAC-pretreated mouse RAW264.7 cells assessed as inhibition of LPS-induced TNFalpha release at 10 uM preincubated for 1 hr followed by LPS stimulation and measured after 4 hrs by ELISA relative to control; format: functional; conditions: time 5 hrs
RAW264.7 [19] = test: Antiinflammatory activity in 24 hrs NAC-pretreated mouse RAW264.7 cells assessed as inhibition of LPS-induced TNFalpha release at 10 uM preincubated for 1 hr followed by LPS stimulation and measured after 4 hrs by ELISA relative to control; format: functional; conditions: time 5 hrs
RAW-Blue [20] = test: Inhibition of LPS-induced NF-kappaB activity in mouse RAW-Blue cells assessed as reduction in SEAP reporter activity at 5 to 20 uM preincubated for 1 hr followed by LPS stimulation and measured after 8 hrs by SEAP reporter gene assay; format: cell-based; conditions: dose 5-20 µM, time 9.0 hrs
RAW-Blue [21] = test: Inhibition of LPS-induced NF-kappaB activity in mouse RAW-Blue cells assessed as reduction in SEAP reporter activity at 5 to 20 uM preincubated for 1 hr followed by LPS stimulation and measured after 24 hrs by SEAP reporter gene assay; format: cell-based; conditions: dose 5-20 µM, time 25.0 hrs
[22] = GSH reactivity assessed as GSH adduct formation by measuring reduction in intracellular GSH level at 20 uM measured after 2 hrs by cell-based monochlorobimane fluorometric method; format: ADME; set-up: scale not given: the % may be the effect or the level left
RAW264.7 [23] = test: Cytotoxicity against mouse RAW264.7 cells assessed as reduction cell viability at 5 to 50 uM measured after 24 hrs by Celltiter-glo assay; format: cell-based; conditions: raw264.7, 24 h, dose 5-50 µM
RAW264.7 [24] = test: Cytotoxicity against mouse RAW264.7 cells assessed as reduction cell viability at 5 uM measured after 24 hrs by Celltiter-glo assay; format: cell-based; conditions: raw264.7, 24 h
[25] = GSH reactivity in PBS assessed as isomerization measured up to 24 hrs by HPLC-MS analysis; format: ADME; conditions: buffer

Structure (SMILES)	Stabilty [2]	inhibition (RAW264.7 [3])	inhibition (RAW264.7 [5])	also measured
CC(=O)CCC[C@@H]1[C@@H](C)CC[C@@H]2[C@](C)(CO)[C@H](O)CC[C@]21C	–	–	–	inhibition [1]: inactive
C[C@H]1CC[C@@H]2[C@](C)(CO)[C@H](O)CC[C@@]2(C)[C@@H]1CC[C@@H]1C(=O)OC[C@H]1O	Stable	inactive	inactive	–
C=C1CC[C@@H]2[C@](C)(CO)[C@H](O)CC[C@@]2(C)[C@@H]1C/C=C\C#N	Stable	inactive	–	–
C=C1CC[C@@H]2[C@](C)(CO)[C@H](O)CC[C@@]2(C)[C@@H]1C/C=C1\C(=O)Nc2ccccc21	Stable	inactive	–	–
C=C1CC[C@@H]2[C@](C)(CO)[C@H](O)CC[C@@]2(C)[C@@H]1C/C=C/C#N	Stable	inactive	inactive	–
C=C1CC[C@@H]2[C@](C)(CO)[C@H](O)CC[C@@]2(C)[C@@H]1C/C=C1\C(=O)Nc2ccc(F)cc21	Stable	inactive	–	–
C=C1CC[C@@H]2[C@](C)(CO)[C@H](O)CC[C@@]2(C)[C@@H]1C/C=C1\SC(=O)NC1=O	Stable	inactive	–	Activity (RAW264.7 [23]): Non-Toxic
C=C1CC[C@@H]2[C@](C)(CO)[C@H](O)CC[C@@]2(C)[C@@H]1C/C=C/C(C)O (some centres not stated)	–	–	–	inhibition [1]: inactive
C=C1CC[C@@H]2[C@](C)(CO)[C@H](O)CC[C@@]2(C)[C@@H]1C/C=C/C(=O)OCC	Stable	inactive	inactive	–
C=C1CC[C@@H]2[C@](C)(CO)[C@H](O)CC[C@@]2(C)[C@@H]1C/C=C1/C(=O)Nc2ccccc21	Stable	inactive	inactive	–
C=C1CC[C@@H]2[C@](C)(CO)[C@H](O)CC[C@@]2(C)[C@@H]1C/C=C1/C(=O)Nc2ccc(F)cc21	Stable	inactive	–	–
C=C1CC[C@@H]2[C@](C)(CO)[C@H](O)CC[C@@]2(C)[C@@H]1CC=C(C#N)C#N	Unstable	–	–	–
C=C1CC[C@@H]2[C@](C)(CO)[C@H](O)CC[C@@]2(C)[C@@H]1C/C=C1\NC(=O)NC1=O	Stable	inactive	–	Activity (RAW264.7 [23]): Non-Toxic
C=C1CC[C@@H]2[C@](C)(CO)[C@H](O)CC[C@@]2(C)[C@@H]1C/C=C1\SC(=S)NC1=O	Stable	inactive	inactive	Activity (RAW264.7 [23]): Non-Toxic
C=C(CO)C(=O)OC	–	inactive	inactive	–
C=C1CC[C@@H]2[C@](C)(CO)[C@H](O)CC[C@@]2(C)[C@@H]1/C=C/C1=CCOC1=O	Stable	inactive	inactive	–
C=C1CC[C@@H]2[C@](C)(CO)[C@H](O)CC[C@@]2(C)[C@@H]1C/C=C/C(=O)c1ccccc1	Stable	Active	Active	Activity (RAW264.7 [24]): Toxic; inhibition (RAW-Blue [20]): Active; inhibition (RAW-Blue [21]): Active; Drug metabolism [25]: Metabolite_Notdetected; K [9]: 6.036e-05 M⁻¹ s⁻¹; t1/2 [10]: 2.12 h

The next lines start with results.

Stabilty [2]	Structure (SMILES)	inhibition (RAW264.7 [3])	inhibition (RAW264.7 [5])	also measured
Stable	C=C1CC[C@@H]2[C@](C)(CO)[C@H](O)CC[C@@]2(C)[C@@H]1C/C=C1\C[C@@H](OC)OC1=O	inactive	–	–
Stable	C=C1CC[C@@H]2[C@](C)(CO)[C@H](O)CC[C@@]2(C)[C@@H]1C/C=C1/C(=O)OC[C@H]1O [ANDROGRAPHOLIDE]	Active	Active	Activity (RAW264.7 [4]): Toxic; inhibition (RAW-Blue [6]): inactive; Activity (RAW-Blue [7]): Active; Activity (RAW-Blue [8]): inactive; K [9]: 2.44e-05 M⁻¹ s⁻¹; t1/2 [10]: 5.46 h; CC50 at 24 h [11]: 14.7 µM; CC50 at 24 h [12]: 26.2 µM; inhibition (RAW264.7 [13]): Active; CC50 (RAW264.7 [14]): 10 µM; Activity (RAW264.7 [15]): Active; Activity (RAW264.7 [16]): Active; inhibition at 10 µM (RAW264.7 [17]): 17%; inhibition at 10 µM (RAW264.7 [18]): 30%; inhibition at 10 µM (RAW264.7 [19]): 62%
Stable	C=C1CC[C@@H]2[C@](C)(CO)[C@H](O)CC[C@@]2(C)[C@@H]1C/C=C1\CCOC1=O	inactive	inactive	CC50 (RAW264.7 [14]): > 30 µM
Stable	C=C1CC[C@@H]2[C@](C)(CO)[C@H](O)CC[C@@]2(C)[C@@H]1C/C=C1\C(=O)OC[C@H]1O	–	inactive	inhibition (RAW-Blue [6]): inactive
Stable	C=C1CC[C@@H]2[C@](C)(CO)[C@H](O)CC[C@@]2(C)[C@@H]1C/C=C1/CCOC1=O	inactive	–	–
Stable	C=C1CC[C@@H]2[C@](C)(CO)[C@H](O)CC[C@@]2(C)[C@@H]1C/C=C1\C=COC1=O	Active	Active	inhibition (RAW-Blue [20]): Active; inhibition (RAW-Blue [21]): inactive; Activity (RAW-Blue [7]): Active; Activity (RAW-Blue [8]): inactive; K [9]: 0.003539 M⁻¹ s⁻¹; t1/2 [10]: 0.05 h; Activity [22]: > 70%
Stable	C=C1CC[C@@H]2[C@](C)(CO)[C@H](O)CC[C@@]2(C)[C@@H]1C/C=C1/C=COC1=O	Active	Active	inhibition (RAW-Blue [20]): Active; inhibition (RAW-Blue [21]): inactive; Activity [22]: > 70%
Stable	C=C1CC[C@@H]2[C@](C)(CO)[C@H](O)CC[C@@]2(C)[C@@H]1C/C=C1\C[C@H](OC)OC1=O	inactive	–	–
Stable	C=C1CC[C@@H]2[C@](C)(CO)[C@H](O)CC[C@@]2(C)[C@@H]1CC=O	inactive	inactive	–
